Test results taken from patent publication US6573254B1, “Method for the stimulation of sperm production and gonadal development in animals” (University of Maryland, priority 1998, dated 2003).

Tests used:
[1] = system: broiler chicks; assay: 0.2% SMZ in standard broiler ration, one to four weeks of age, continuous light versus LD 8:16; format: in vivo, chicken; conditions: 1-4 weeks of age
Description: FIG. 9 depicts a bar graph showing testes weight following 0.2% SMZ (1-4 weeks of age) in chicks exposed to LD 24:0 or LD 8:16.
In a further study using broiler chicks, SMZ at 0.2% was added to a standard broiler ration and fed to chicks from one to four weeks of age. One group was raised under continuous light while a second group was exposed to a photoperiod of LD 8:16. […] Although food intake was not measured in this experiment, body weight was taken at the beginning and end of the study. […] Sulfamethazine has a stimulatory effect upon testes growth when chicks are exposed to a long photoperiod. One possible interpretation is that SMZ appears to facilitate or amplify the stimulatory effect of long-day light on gonadal development in male chicks.

[2] = system: male broiler chicks; assay: 0.2% SMZ in starter ration during genetic selection phase of broilerization, from one week of age; format: in vivo, chicken
Excerpt: FIG. 4 depicts a bar graph showing the testes response resulting from the “genetic selection” phase of broilerization (see FIG. 1) plus 0.2% sulfamethazine (SMZ) added to a standard starter ration at one week of age.
FIGS. 5A and 5B depict graphs showing weekly levels of plasma luteinizing hormone (LH; 5A) and follicle stimulating hormone (FSH; 5B) in male broiler chicks fed a diet with 0.2% SMZ beginning at one week of age (*=p[…]0.05).
(§1) Blood samples were taken starting at day of SMZ administration and weekly following initiation of the treatment.

[3] = system: broiler breeders; assay: 0.2% SMZ in grower diet during photoperiodic phase of broilerization (weeks 20-28, LD 14:10); format: in vivo, chicken; conditions: p≦0.05
Excerpt: FIGS. 7A and 7B depict bar graphs showing testis weight response (7A) and plasma LH (7B) resulting from the “photoperiodic” phase of broilerization plus 0.2% SMZ added to a grower diet from 20 to 28 weeks of age. Testes and blood were sampled at 28 weeks of age. Photoperiod=LD 14:10.
FIGS. 8A and 8B show plasma FSH (8A) and testosterone (8B) resulting from blood samples taken as described with respect to FIGS. 7A and 7B.

[4] = system: male broiler chicks; assay: Daily plasma LH immediately following dietary administration of 0.2% SMZ, from one week of age; format: in vivo, chicken; conditions: 0.2% SMZ diet from one week of age, FIG. 6
Excerpt: FIG. 6 depicts a graph showing daily levels of LH immediately following dietary administration of 0.2% SMZ, beginning at one week of age (*=p<0.05).
as §1

[5] = system: broiler chicks; conditions: cited from earlier work
[6] = system: chicks; conditions: ICV administration to chicks; cited from earlier work

Compound	testes growth ([1]; continuous light (LD 24:0), p≦0.05, FIG. 9)	progonadal effects (testes weight) ([1]; short photoperiod LD 8:16, FIG. 9)	body weight, long-day versus short-day SMZ treated groups ([1]; weighed at beginning and end of study)	plasma luteinizing hormone (LH), weekly levels ([2]; 0.2% SMZ diet from one week of age, weekly blood samples, FIG. 5A)	plasma follicle stimulating hormone (FSH), weekly levels ([2]; 0.2% SMZ diet from one week of age, weekly blood samples, FIG. 5B)	rate of testes growth ([2]; 0.2% SMZ in starter ration from one week of age, FIG. 4)	semen production ([2]; 0.2% SMZ in starter ration, by nine weeks of age)	plasma LH ([3]; 0.2% SMZ weeks 20-28, LD 14:10, blood at week 28, FIG. 7B)	plasma FSH ([3]; 0.2% SMZ weeks 20-28, LD 14:10, blood at week 28, FIG. 8A)	plasma testosterone ([3]; 0.2% SMZ weeks 20-28, LD 14:10, blood at week 28, FIG. 8B)	testis weight versus controls ([3]; 0.2% SMZ weeks 20-28, LD 14:10, sampled at 28 weeks, FIG. 7A)	time until plasma LH was significantly elevated after consuming feed containing SMZ [4]	plasma gonadotropins ([5]; broiler chicks)	testes development ([5]; broiler chicks)	thyroid hormone ([5]; broiler chicks)	number of immuno-stained neuropeptide Y (NPY) neurons ([5]; broiler chicks, mediobasal hypothalamus and infundibular nucleus (IN))	comb coloration (side effect) ([5]; chronic use of SMZ)	size of comb and testes (side effect) ([5]; chronic use of SMZ)	growth of the testes [6]
Cc1cc(C)nc(NS(=O)(=O)c2ccc(N)cc2)n1 [SMZ, Sulfamethazine]	significantly elevated	markedly attenuated	No significant difference	significantly increased	significantly increased	significantly increased	produced viable semen	significantly elevated	significantly elevated	significantly elevated	significantly heavier than controls	≤ 48 h	increases	significantly increases	transiently suppresses	increases	marked red coloration of the comb	increased size of both comb and testes	–
neuropeptide Y [NPY]	–	–	–	–	–	–	–	–	–	–	–	–	–	–	–	–	–	–	stimulates
